The text below walks through data of PubChem BioAssay (NCI).

Among the test systems are ACHN renal; KM12 colon; T-47D breast; HT29 colon; BT-549 breast; SF-268 CNS; COLO 205 colon; MALME-3M melanoma; NCI-H522 lung; CAKI-1 renal.
Common to all, as to experiment: DTP human tumour cell line panel, 48 h

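How tested: cells in 96-well plates exposed to compound for 48 hours at five concentrations. GI50 is the concentration that inhibits growth by half. Definition used: TGI = concentration required for complete inhibition of growth.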

Broadly, the GI50 is the concentration that inhibits growth by half. A word on the TGI: it is the concentration giving total growth inhibition. Read a high TGI as lower sensitivity of the cells. With `COc1ccc(OC)c(C2SCC(=O)N2NC(=O)C(O)c2ccccc2)c1` (centres undefined), the GI50 in the assay on ACHN renal is > 100 µM; with KM12 colon it was > 100 µM; with T-47D breast, > 100 µM; in the assay on HT29 colon, > 100000 nM; with BT-549 breast, > 100 µM; in the assay on SF-268 CNS, > 100 µM. Also, the GI50 is > 100 µM in the assay with COLO 205 colon, > 100 µM in the assay with MALME-3M melanoma, > 100000 nM in the assay with NCI-H522 lung and > 100000 nM with CAKI-1 renal. Further, the total growth inhibition concentration (TGI) with ACHN renal, with KM12 colon, with T-47D breast, with HT29 colon, with BT-549 breast and in the assay on SF-268 CNS was > 100 µM in each case. The TGI with COLO 205 colon, with MALME-3M melanoma, in the assay on NCI-H522 lung and in the assay on CAKI-1 renal was > 100 µM in each case.

Regarding `N/N=C1\CC(=O)NC(=O)N1`, the TGI in the assay on ACHN renal, in the assay on KM12 colon, in the assay with T-47D breast, in the assay with HT29 colon, in the assay with BT-549 breast and with SF-268 CNS was > 100 µM in each case. In addition, the TGI in the assay with COLO 205 colon, with MALME-3M melanoma, in the assay with NCI-H522 lung and in the assay with CAKI-1 renal was > 100 µM throughout.

Take `CC(=O)Oc1ccccc1C(=O)/C=C/c1cccc([N+](=O)[O-])c1`: the GI50 is 2.29 µM in the assay with ACHN renal; 2.4 µM in the assay on KM12 colon; 10.8 µM in the assay with T-47D breast; 2360 nM in the assay with HT29 colon; 2.28 µM in the assay on BT-549 breast; 3.58 µM in the assay on SF-268 CNS. Further, the GI50 was 3.29 µM in the assay with COLO 205 colon, 13.6 µM in the assay with MALME-3M melanoma, 15300 nM in the assay on NCI-H522 lung and 2950 nM in the assay on CAKI-1 renal. In addition, the total growth inhibition concentration (TGI) with ACHN renal was determined as 4.99 µM; in the assay with KM12 colon, 6.23 µM; with T-47D breast, 44 µM; with HT29 colon, 4.92 µM; in the assay with BT-549 breast it was 5.41 µM; in the assay on SF-268 CNS it was 12.4 µM. In addition, the total growth inhibition concentration (TGI) in the assay with COLO 205 colon was found to be 11.5 µM; with MALME-3M melanoma it was 30.5 µM; in the assay with NCI-H522 lung it was 36.3 µM; in the assay with CAKI-1 renal it was 14.9 µM.

As for `O=C(Oc1cccnc1)c1ccsc1Nc1ccnc(C(F)(F)F)c1`, the GI50 was 17.7 µM with ACHN renal; 3.38 µM in the assay on KM12 colon; 13.8 µM with T-47D breast; 2390 nM in the assay with HT29 colon; 5.36 µM with BT-549 breast; 4.54 µM in the assay with SF-268 CNS. Further, the GI50 in the assay on COLO 205 colon was 4.89 µM; with MALME-3M melanoma it was 45.6 µM; in the assay on NCI-H522 lung, 2360 nM; in the assay on CAKI-1 renal, 3820 nM. Moreover, the TGI in the assay with ACHN renal is 95.8 µM; in the assay on KM12 colon it was 10.3 µM; in the assay on T-47D breast it was 68 µM; in the assay with HT29 colon, 6.34 µM; with BT-549 breast it was > 100 µM; in the assay on SF-268 CNS, > 100 µM. Moreover, the total growth inhibition concentration (TGI) with COLO 205 colon was 24.6 µM; in the assay on MALME-3M melanoma, > 100 µM; in the assay with NCI-H522 lung it was 8.36 µM; in the assay on CAKI-1 renal it was > 100 µM.

As for `Cc1cc(N(CCC#N)CCC#N)ccc1/C=C1N=C(/C=C\c2ccccc2)N(c2ccc(Cl)cc2)C\1=O`, the TGI in the assay on ACHN renal, in the assay with KM12 colon, in the assay with T-47D breast, in the assay with HT29 colon, with BT-549 breast and in the assay on SF-268 CNS was > 100 µM throughout. Besides, the TGI was 5.06 µM with COLO 205 colon, > 72 µM in the assay with MALME-3M melanoma, > 100 µM in the assay on NCI-H522 lung and > 100 µM in the assay with CAKI-1 renal.

On to `CC(C)=CCC/C(C)=C/CC/C(C)=C/CC/C=C(\C)CC/C=C(\C)CCC(=O)Nc1ccn(C2OC(CO)C(O)C2(F)F)c(=O)n1` (centres undefined), for which the GI50 was 0.0266 µM in the assay with ACHN renal; 0.181 µM with KM12 colon; 0.089 µM in the assay on T-47D breast; 594 nM in the assay with HT29 colon; 0.0853 µM with SF-268 CNS; 0.0982 µM in the assay on COLO 205 colon. Moreover, the GI50 in the assay on MALME-3M melanoma is 0.438 µM; in the assay with NCI-H522 lung, 85.4 nM; with CAKI-1 renal, 42 nM. Besides, the total growth inhibition concentration (TGI) in the assay with ACHN renal came to 11.2 µM; in the assay with KM12 colon, 18.1 µM; with T-47D breast, 11.8 µM; with HT29 colon it was 48.9 µM; in the assay with BT-549 breast, 0.472 µM; in the assay with SF-268 CNS, 3.51 µM. In addition, the TGI is 12.6 µM in the assay with COLO 205 colon, 6.71 µM in the assay on MALME-3M melanoma, 5.83 µM with NCI-H522 lung and 9.85 µM in the assay on CAKI-1 renal.

Regarding `COc1ccc(OC)c(Cn2cc3c(c2)-c2oncc2CC3)c1`, the GI50 was 6.07 µM with ACHN renal; 3.02 µM in the assay on KM12 colon; 7.1 µM with T-47D breast; 2350 nM in the assay with HT29 colon; 4.05 µM in the assay on BT-549 breast; 6.22 µM in the assay on SF-268 CNS. Further, the GI50 is 3.56 µM in the assay on COLO 205 colon, 3.03 µM in the assay on MALME-3M melanoma, 1630 nM in the assay with NCI-H522 lung and 2730 nM in the assay on CAKI-1 renal. Besides, the TGI in the assay with ACHN renal was > 100 µM; in the assay on KM12 colon, 39.4 µM; in the assay on T-47D breast, > 100 µM; with HT29 colon it was 10.9 µM; with BT-549 breast, > 100 µM; with SF-268 CNS, > 100 µM. Besides, the total growth inhibition concentration (TGI) in the assay on COLO 205 colon was 13.6 µM; with MALME-3M melanoma, 40.7 µM; in the assay on NCI-H522 lung, 4.89 µM; with CAKI-1 renal, > 100 µM.

With `CC1=CC(=O)C(O)C2(C)C1CC(O)C13COC4(C)C(OC(=O)C41)C(O)C23` (centres undefined), the GI50 with ACHN renal is 4.75 µM; in the assay with KM12 colon it was 7.41 µM; in the assay with T-47D breast, 17.6 µM; in the assay on HT29 colon, 9020 nM; in the assay with BT-549 breast, 11 µM; with SF-268 CNS, 12.6 µM. In addition, the GI50 in the assay with COLO 205 colon was 12.1 µM; in the assay on MALME-3M melanoma it was 10.1 µM; with NCI-H522 lung, 6650 nM; in the assay on CAKI-1 renal it was 10400 nM. Moreover, the total growth inhibition concentration (TGI) in the assay with ACHN renal was 20.3 µM; in the assay on KM12 colon it was 33.6 µM; with T-47D breast, 66.5 µM; in the assay with HT29 colon, > 100 µM; with BT-549 breast, 43.4 µM; with SF-268 CNS, 52.5 µM. Also, the TGI in the assay with COLO 205 colon was determined as 77.1 µM; in the assay with MALME-3M melanoma it was 37.4 µM; in the assay on NCI-H522 lung, 30.5 µM; with CAKI-1 renal, 54.4 µM.
